The test system of the experiment is NKL cell line transfected with KIR2DS2. In words: Vav1 phosphorylation (pVav1 Western blot) in NKL cells transfected with KIR2DS2. The experiment is classed as cell-based. The note with it: L721.174 (HLA-Cw*0102) cells loaded with peptide; KIR2DS2-transfected NKL, 5 minutes. How it is done: A. L721.174 cells were incubated with indicated peptides. The cells were then incubated with the NK cell line transfected with KIR2DS2. The cells were lysed and the KIR2DS2 was then immunoprecipitated from the mixture using the GL183 antibody coupled to protein-G beads. The immune precipitate was analysed by Western blotting using a phosphotyrosine antibody. The membrane was then stripped and reprobed with an antibody to DAP12 the molecule that transduces a positive signal from KIR2DS2. Shown are the regions on the blots at the level of DAP12 (12-15 kDa). B. L721.174 cells were incubated with indicated peptides. The cells were then incubated with the NK cell line transfected with KIR2DS2 or transfected with KIR2DL2. The cells were lysed in 1% NP-40 and then analysed by Western blotting using antibodies to pVav1 and then following stripping of the membrane to Vav1. Shown are Western blots around the 98 kDa region, and below them the corresponding densitometries for 3 independent experiments.
FIG. 7 1×10^6 L721.221-HLA-C*0304-ICP47 cells were incubated overnight at 26° C. with indicated peptides at a concentration of […]. The cells were then incubated with the NKL cell line transfected with KIR2DS2 or transfected with KIR2DL2 for 5 minutes. The cells were lysed in 1% NP-40 and then analysed by Western blotting using antibodies to pVav1 and then following stripping of the membrane to Vav1. Shown are Western blots around the 98 kDa region, and below them the corresponding densitometries for 2 independent experiments.
FIG. 14—The Dengue virus peptide IVDLMCHATF (SEQ ID NO: 1) activates KIR2DS2 positive NK cells. 174 cells were incubated with the IVDLMCHATF (SEQ ID NO: 1) and then KIR2DS2-positive transfected NKL cells or KIR2DL2-positve transfected NKL cells. Activation of NK cells was assessed by western blotting for phosphorylated Vav1, and compared to total Vav1.
With reference to FIG. 6A, 1×10^6 L721.174 cells were incubated overnight at 26° C. with indicated peptides at a concentration of […]. The cells were then incubated with the NK cell line transfected with KIR2DS2 for 5 minutes. The cells were lysed in 1% digitonin buffer and the KIR2DS2 was then immunoprecipitated from the mixture using the GL183 antibody coupled to protein-G beads. The immune precipitate was analysed by Western blotting using a phosphotyrosine antibody. […] The cells were lysed in 1% NP-40 and then analysed by Western blotting using antibodies to pVav1 and then following stripping of the membrane to Vav1. […]
With reference to FIG. 7, 1×10^6 HLA-C*0304:ICP47:721.221 cells were incubated overnight at 26° C. with indicated peptides at a concentration of […]. […] The cells were lysed in 1% NP-40 and then analysed by Western blotting using antibodies to pVav1 and then following stripping of the membrane to Vav1. […]

For IVDLMCHATF [Dengue virus peptide], the “activation of NK cells (phosphorylated Vav1 compared to total Vav1)” value was “activated KIR2DS2”.
On to “LNPSVAATL [peptide recognized by KIR2DS2-positive NK cells]”, for which the “activation of NK cells (phosphorylated Vav1 compared to total Vav1)” value was “activates NK cells expressing KIR2DS2”.

The values are drawn from patent US10736933B2, “Peptide-induced NK cell activation” (priority 2015, dated 2020).
